Laboratory results reported in patent publication US9770445B2, “Sulfoximine substituted 5-fluoro-N-(pyridin-2-yl)pyridin-2-amine derivatives and their use as CDK9 kinase inhibitors” (BAYER PHARMA AKTIENGESELLSCHAFT, priority 2013, dated 2017).

Tested on: MOLM-13 human acute myeloid leukemia cells
Assay: Proliferation assay, MOLM-13 (Cell Titre-Glo)
Format: cell-based
Details: MOLM-13, 72-hour exposure, read-out: Inhibition of MOLM-13 cell proliferation
Experimental: Non-adherent MOLM-13 human acute myeloid leukemia cells (DSMZ ACC 554) were seeded at a density of 5,000 cells/well in a 96-well multititer plate in 100 μL of growth medium supplemented 10% fetal calf serum. After 24 hours, cell viability of one plate (zero-point plate) was determined with the Cell Titre-Glo Luminescent Cell Viability Assay (Promega), while 50 μL of test compound containing medium was added to the wells of the other plates (final concentrations in the range of 0.001-10 μM and DMSO controls; the final concentration of the solvent dimethyl sulfoxide was 0.5%). Cell viability was assessed after 72-hour exposure with the Cell Titre-Glo Luminescent Cell Viability Assay (Promega). IC50 values (inhibitory concentration at 50% of maximal effect) were determined by means of a 4 parameter fit on measurement data which were normalized to vehicle (DMSO) treated cells (=100%) and measurement readings taken immediately before compound exposure (=0%).

| IC50 | Structure (SMILES) |
| --- | --- |
| 16 nM | CS(=N)(=O)Cc1cc(F)nc(Nc2cc(-c3ccc(F)c4ccoc34)c(F)cn2)c1 (racemic) [Example 1, (rac)-5-Fluoro-4-(4-fluoro-1-benzofuran-7-yl)-N-{6-fluoro-4-[(S-methylsulfonimidoyl)methyl]pyridin-2-yl}pyridin-2-amine] |
| 6 nM | CS(=N)(=O)Cc1cc(Nc2cc(-c3ccc(F)c4ccoc34)c(F)cn2)nc(C(F)(F)F)c1 (racemic) [Example 3, (rac)-5-Fluoro-4-(4-fluoro-1-benzofuran-7-yl)-N-{4-[(S-methylsulfonimidoyl)methyl]-6-(trifluoromethyl)pyridin-2-yl}pyridin-2-amine] |
| 18 nM | CS(=N)(=O)Cc1ccnc(Nc2cc(-c3ccc(F)c4ccoc34)c(F)cn2)c1 (racemic) [Example 5, (rac)-5-Fluoro-4-(4-fluoro-1-benzofuran-7-yl)-N-{4-[(S-methylsulfonimidoyl)methyl]pyridin-2-yl}pyridin-2-amine] |
| 6.3 nM | Cc1cc(CS(C)(=N)=O)cc(Nc2cc(-c3ccc(F)c4ccoc34)c(F)cn2)n1 (racemic) [Example 7, (rac)-5-Fluoro-4-(4-fluoro-1-benzofuran-7-yl)-N-{6-methyl-4-[(S-methylsulfonimidoyl)-methyl]pyridin-2-yl}pyridin-2-amine] |
| 3.9 nM | CCc1cc(CS(C)(=N)=O)cc(Nc2cc(-c3ccc(F)c4ccoc34)c(F)cn2)n1 (racemic) [Example 8, (rac)-N-{6-Ethyl-4-[(S-methylsulfonimidoyl)methyl]pyridin-2-yl}-5-fluoro-4-(4-fluoro-1-benzofuran-7-yl)pyridin-2-amine] |
